6 molecules from publication PMC7335187, “Super-assembly of ER-phagy receptor Atg40 induces local ER remodeling at contacts with forming autophagosomal membranes” (Nature Communications, 2020) can be followed below.

Where two headings read alike, the source gives them in different places. Where a SMILES comes first, the peptide text is derived from it.

Format in all cases: binding
One test deals with LC3A WT (Homo sapiens, UniProt Q9H492). Kind of test: ITC of peptides with LC3A. The conditions noted are these: 25 °C, 0.5 mM peptide in syringe, LC3A WT in cell 10 times lower, single-site model, ± fitting error. As to the method:
(§1) Some of peptides (Supplementary Table 4) and all proteins except Atg40-6His were expressed in E. coli BL21 (DE3). Bacteria were cultured at 37 °C until OD600 became 0.8–1.0 and further cultured at 16 °C with 100 μM IPTG overnight. After centrifugation, the pellets were resuspended with 20 ml PBS with 0.5 mM EDTA and lysed by sonication for 10 min. After centrifugation, the supernatants were incubated with GST-accept resin (Nacalai tesque). After three times wash by PBS, the proteins were eluted with glutathione buffer (10 mM glutathione and 50 mM Tris pH 8.0). The buffer of the eluates was exchanged with PBS by a Bio-Scale Mini BioGel P-6 desalting column (Bio-Rad). After incubation with GST-fused HRV 3 C protease at 4 °C overnight, the samples were subjected to a GST-accept resin column to remove excised GST and the protease. RTN3^245–264-GABARAP was purified by cation-exchange chromatography using CM Sepharose FF column (GE Healthcare) with 500 mM MES pH 6.0 as buffer B and 50 mM MES pH 6.0 and 1 M NaCl as buffer C. The samples were further subjected to size-exclusion chromatography with 20 mM HEPES pH 6.8, 150 mM sodium chloride except for mCherry-Atg8-CC^tetramer (20 mM HEPES pH 6.8, 500 mM sodium chloride) using a Superdex 75 10/300 or Superdex 200 26/60 column. As described in Supplementary Table 4, the Atg40^237–252 M245A and Atg40^237–252 D243A D247A peptides were synthesized by Cosmo Bio, and the FAM134B^453–460 and SEC62^361–368 peptides were synthesized by BEX Co., Ltd. The Atg40^234–252 peptide and its variants were prepared using Liberty Blue peptide synthesizer (CEM Corporation). After dissolving these synthesized peptides in 300 μl water with ~10 μl ammonium hydroxide, they were subjected to size-exclusion chromatography with 20 mM HEPES pH 6.8 containing 150 mM sodium chloride using a Superdex 75 10/300 column.
Peptides used in ITC are listed in Supplementary Table 4. ITC experiments were performed using Microcal iTC200 calorimeter (Malvern Panalytical), with stirring at 1000 rpm at 25 °C. […]

Another test concerns the target GABARAP WT (Homo sapiens, UniProt O95166). The test is described as follows: ITC of ER-phagy receptor peptides with GABARAP. The conditions noted are these: 25 °C, 0.5 mM peptide in syringe, ± fitting error; for N (site), stoichiometry of binding: GABARAP WT in cell. The source says: (§2) All plasmids for expression of recombinant proteins and peptides in bacteria were based on a pGEX6P-1 vector (GE Healthcare). Construction of pGEX6P-ScAtg8 (1-116) K26P and pGEX6P-rat LC3B (1-120) was previously described[35],[47]. All mutations were generated by PCR-based mutagenesis. The genes were amplified by PCR and inserted downstream of the HRV 3C protease recognition site by NEBuilder HiFi DNA Assembly Master Mix (New England Biolabs) except for that encoding human GABARAP (1-116), which was inserted using restriction enzymes for the NdeI and BamHI sites. Plasmids for expression of fusion proteins for crystallization were constructed by inserting the genes encoding Atg40^237–252, human FAM134B^450–468, human SEC62^361–376 with the T367D mutation, and human RTN3^245–264 isoform e into upstream of the sequence encoding Atg8 K26P of pGEX6P-Atg8 (the K26P mutation was introduced for stabilizing Atg8) or upstream of the sequence encoding GABARAP of pGEX6P-GABARAP (with the F3S V4T mutations for enhancing crystallization). For phase-separation experiments, the mCherry and BNDL1[25],[26] sequences were inserted into upstream and downstream of the ATG8 gene in pGEX6P-Atg8 K26P, respectively. pGEX-SNAP-40C was constructed by the removal of the HRV 3C protease recognition site and the insertion of the SNAP sequence from pSNAP-tag(T7) vector (New England Biolabs) with a linker (Gly–Gly–Gly–Ser–Gly–Gly–Gly) and Atg40^194–256 following a linker (Ser–Ala–Ser–Ser) to upstream and downstream of GST in pGEX6P-1 vector, respectively. In the construction of plasmids for peptide production, a Tyr residue was attached to their C termini for enabling the quantification by absorbance at 280 nm (Supplementary Table 4).
(§3) Some of peptides (Supplementary Table 4) and all proteins except Atg40-6His were expressed in E. coli BL21 (DE3). Bacteria were cultured at 37 °C until OD600 became 0.8–1.0 and further cultured at 16 °C with 100 μM IPTG overnight. After centrifugation, the pellets were resuspended with 20 ml PBS with 0.5 mM EDTA and lysed by sonication for 10 min. […]

The next test deals with LC3B WT (Rattus norvegicus, UniProt Q62625). Kind of test: ITC of peptides with LC3B. Particulars: 25 °C, 0.5 mM peptide in syringe, LC3B WT in cell 10 times lower, single-site model, ± fitting error.
Excerpt: as §2, §3

For another test, the target named is LC3C WT (Homo sapiens, UniProt Q9BXW4). Kind of test: ITC of peptides with LC3C. Particulars: 25 °C, 0.5 mM peptide in syringe, LC3C WT in cell 10 times lower, single-site model, ± fitting error. The procedure: as §1
Peptides used in ITC are listed in Supplementary Table 4. ITC experiments were performed using Microcal iTC200 calorimeter (Malvern Panalytical), with stirring at 1000 rpm at 25 °C. Atg40, FAM134B, SEC62, and RTN3 peptides were prepared as injection samples from the syringe. Concentrations of FAM134B, SEC62, and RTN3 peptides were 0.5 mM, whereas those of Atg40^234–252 and Atg40^237–252 peptides were 2.0 and 1.8 mM, respectively. In total, 200 μl Atg8, LC3A, LC3B, LC3C, GABARAP, GABARAPL1, and GABARAPL2 with 10 times lower concentration than the syringe samples were filled in the cell. As an exception, 1.8 mM Atg8 was filled in the cell when 1.8 mM Atg40^237–252 D243A D247A was in a syringe. The titration involved 18 injections of 2 μl of the syringe sample at intervals of 120 s into a cell after one injection of 0.4 μl of syringe sample. […]

Broadly, the Kd is the free concentration of one partner at which half of the binding sites on the other are occupied at equilibrium, for simple one-to-one binding.

Chain of GABARAP WT (O95166 1-116): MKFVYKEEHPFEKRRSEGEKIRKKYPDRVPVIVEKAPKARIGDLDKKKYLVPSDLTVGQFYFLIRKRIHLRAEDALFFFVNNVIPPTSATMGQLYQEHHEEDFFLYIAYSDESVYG
Chain of LC3C WT (Q9BXW4 whole entry): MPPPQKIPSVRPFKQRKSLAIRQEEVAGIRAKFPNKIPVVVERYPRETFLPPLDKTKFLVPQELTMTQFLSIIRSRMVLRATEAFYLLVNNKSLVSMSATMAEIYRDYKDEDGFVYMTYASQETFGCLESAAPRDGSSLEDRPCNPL

Regarding `CC[C@H](C)[C@H](NC(=O)[C@@H](NC(=O)[C@H](CCC(=O)O)NC(=O)[C@H](Cc1ccccc1)NC(=O)[C@@H]1CCCN1C(=O)[C@H](CO)NC(=O)[C@H](CCC(=O)O)NC(=O)[C@@H](N)Cc1ccc(O)cc1)C(C)C)C(=O)N[C@H](C(=O)N[C@@H](CC(=O)O)C(=O)O)[C@@H](C)CC` [RTN3245-253 WT (∆helix)] (H-YESPFEVIID-OH), the equilibrium dissociation constant (Kd) at LC3A WT was 21.7 ± 3.62 µM.
Take `CSCC[C@H](NC(=O)[C@H](CCC(=O)O)NC(=O)[C@H](Cc1ccccc1)NC(=O)[C@H](CC(=O)O)NC(=O)[C@H](CC(N)=O)NC(=O)CNC(=O)[C@H](CC(N)=O)NC(=O)CNC(=O)[C@H](CO)NC(=O)[C@H](CO)NC(=O)[C@H](Cc1c[nH]cn1)NC(=O)[C@@H]1CCCN1C(=O)CN)C(=O)N[C@@H](C)C(=O)N[C@H](C(=O)N[C@@H](CCCCN)C(=O)N[C@@H](CCC(=O)O)C(=O)N[C@@H](CCC(=O)O)C(=O)N[C@@H](CC(C)C)C(=O)N[C@@H](CCC(=O)O)C(=O)N[C@@H](CCC(N)=O)C(=O)N[C@@H](CCC(N)=O)C(=O)N[C@H](C(=O)N[C@@H](CC(=O)O)C(=O)N[C@@H](Cc1ccc(O)cc1)C(=O)O)[C@@H](C)O)[C@@H](C)O` [SEC62355-376 I366A] (H-GPHSSGNGNDFEMATKEELEQQTDY-OH): the “N (site), stoichiometry of binding” value at GABARAP WT is reported as 0.87 ± 0.10.
Turning to `CC[C@H](C)[C@H](NC(=O)[C@H](CCC(N)=O)NC(=O)[C@H](CC(=O)O)NC(=O)[C@H](CC(C)C)NC(=O)[C@H](CCC(=O)O)NC(=O)[C@H](CO)NC(=O)[C@H](CCC(N)=O)NC(=O)[C@H](CC(=O)O)NC(=O)[C@H](C)NC(=O)[C@H](CC(C)C)NC(=O)[C@H](CCC(=O)O)NC(=O)[C@H](Cc1ccccc1)NC(=O)[C@H](CC(=O)O)NC(=O)[C@H](CC(=O)O)NC(=O)CNC(=O)[C@H](CCC(=O)O)NC(=O)[C@H](CCC(=O)O)NC(=O)[C@@H](NC(=O)[C@H](CC(=O)O)NC(=O)[C@@H](NC(=O)[C@H](CC(=O)O)NC(=O)[C@H](CCC(=O)O)NC(=O)[C@H](CCC(=O)O)NC(=O)[C@@H]1CCCN1C(=O)CN)[C@@H](C)O)[C@@H](C)O)C(=O)N[C@@H](CCC(=O)O)C(=O)N[C@@H](CO)C(=O)N[C@@H](CCC(=O)O)C(=O)N[C@@H](CC(C)C)C(=O)N[C@@H](Cc1ccc(O)cc1)C(=O)O` [FAM134B444-470 L458A] (H-GPEEDTDTEEGDDFELADQSELDQIESELY-OH), at GABARAP WT, the “N (site), stoichiometry of binding” value worked out at 0.99 ± 0.03. The molecule further displayed a Kd on GABARAP WT (20 mM HEPES pH 6.8, 150 mM NaCl, GABARAP WT in cell 10 times lower, single-site model) of 2.06 ± 0.61 µM.
In the case of `CC[C@H](C)[C@H](NC(=O)[C@H](CCC(N)=O)NC(=O)[C@H](CC(=O)O)NC(=O)[C@H](CC(C)C)NC(=O)[C@H](C)NC(=O)[C@H](CO)NC(=O)[C@H](CCC(N)=O)NC(=O)[C@H](CC(=O)O)NC(=O)[C@H](CC(C)C)NC(=O)[C@H](CC(C)C)NC(=O)[C@H](C)NC(=O)[C@H](Cc1ccccc1)NC(=O)[C@H](CC(=O)O)NC(=O)[C@H](CC(=O)O)NC(=O)CNC(=O)[C@H](CCC(=O)O)NC(=O)[C@H](CCC(=O)O)NC(=O)[C@@H](NC(=O)[C@H](CC(=O)O)NC(=O)[C@@H](NC(=O)[C@H](CC(=O)O)NC(=O)[C@H](CCC(=O)O)NC(=O)[C@H](CCC(=O)O)NC(=O)[C@@H]1CCCN1C(=O)CN)[C@@H](C)O)[C@@H](C)O)C(=O)N[C@@H](CCC(=O)O)C(=O)N[C@@H](CO)C(=O)N[C@@H](CCC(=O)O)C(=O)N[C@@H](CC(C)C)C(=O)N[C@@H](Cc1ccc(O)cc1)C(=O)O` [FAM134B^444-470 E456A E462A] (H-GPEEDTDTEEGDDFALLDQSALDQIESELY-OH), at LC3B WT, binding was characterised by a dissociation constant (Kd) of 8.2 ± 2.46 µM.
Consider `CC[C@H](C)[C@H](NC(=O)[C@@H](NC(=O)[C@H](CCC(=O)O)NC(=O)[C@H](Cc1ccccc1)NC(=O)[C@@H]1CCCN1C(=O)[C@H](CO)NC(=O)[C@@H](N)CCC(=O)O)C(C)C)C(=O)N[C@H](C(=O)N[C@@H](CC(=O)O)C(=O)N[C@@H](CCCCN)C(=O)N[C@@H](C)C(=O)N[C@@H](C)C(=O)N[C@@H](Cc1ccccc1)C(=O)N[C@@H](CC(=O)O)C(=O)N[C@@H](CCCCN)C(=O)N[C@@H](CCC(=O)O)C(=O)N[C@@H](Cc1ccccc1)C(=O)N[C@@H](CCCCN)C(=O)N[C@@H](CC(=O)O)C(=O)N[C@@H](CO)C(=O)N[C@@H](Cc1ccc(O)cc1)C(=O)O)[C@@H](C)CC` [RTN3245-264 WT] (H-ESPFEVIIDKAAFDKEFKDSY-OH), for which the equilibrium dissociation constant (Kd) result at LC3C WT is “not detected”.
As to `CC[C@H](C)[C@H](NC(=O)[C@H](CCSC)NC(=O)[C@H](CCC(=O)O)NC(=O)[C@H](Cc1ccccc1)NC(=O)[C@H](CC(=O)O)NC(=O)[C@@H](N)CC(N)=O)C(=O)N[C@H](C(=O)N[C@@H](CCCCN)C(=O)N[C@@H](Cc1ccc(O)cc1)C(=O)O)[C@@H](C)O` [SEC62^361-368 (Δhelix)] (H-NDFEMITKY-OH), on LC3C WT (read-out: Kd), the Kd turned out to be 31.9 ± 13.2 µM.
